Reference: US6995262B1, “Use of acylsulfonamido-substituted polymethine dyes as fluorescene dyes and/or markers” (Bayer CropScience AG, priority 1999, dated 2006)
Marks after values point to notes of the source that are not given here.

What was measured:
Type in all cases: physicochemical
[1] = Extinction coefficient determined assuming Beer's law; settings: Beer's law assumed
Procedure: Determination of the Extinction Coefficient The extinction coefficient was determined assuming that Beer's law applies.

[2] = Relative quantum yield of dye-protein conjugates, determined relative to Cy5; settings: protein conjugates at similar molar dye/protein ratios, protein HSA
Procedure: The protein used was HSA (Human Serum Albumin).
Determination of the Quantum Yield
The quantum yield was determined relative to Cy5
For labeling, the crude product (1 aliquot) is dissolved in 1 ml of DMF. 50 μl of this solution are pipetted to 1.5 mL (=1 mg) of anti-HSA solution in carbonate buffer pH 9.2. The reaction solution is stirred at RT under the exclusion of light for 2 hours.
Using gel permeation chromatography over a Sephadex G25 column, the conjugate is then separated from unbound dye. The elution buffer used is PBS, pH 7.4.
Protein conjugates of other dyes, which are listed in Table 1, were prepared in an analogous manner.

[3] = Aggregate formation: ratio of absorption maxima of monomer and aggregate at increasing salt concentration; settings: for characteristics with respect to aggregate formation: with increasing salt concentration
Excerpt: The intensity of the absorption in the absorption maximum of the monomer is a relative measure for the concentration of the monomer in the solution, the same also applies to the concentration of the aggregate, this can be correlated to the intensity of the absorption in the absorption maximum of the aggregate, which is shifted hypsochronically compared to the monomer. […] The increasing salt concentration causes an aggregate formation.

[4] = Photostability: dye solutions exposed to daylight, reduction of absorption over time; settings: after 30 min, starting absorption 1.4 to 1.6 O.D.
Procedure: The photostability was determined by exposing dye solutions to daylight. The absorption of the solutions varied between 1.4 and 1.6 O.D. The reduction of the absorption over time is a measure for the photostability of the dyes. These conditions were chosen since the handling of the dyes, too, includes manual process steps during which the dyes are exposed to daylight. In the case of CY5, it is clearly noticeable that, even after 30 min, the absorption has decreased by 12%. This is not the case for the dyes according to the invention, and the latter are thus also more user-friendly, by maintaining a stable absorption.

Absorption monomer/absorption dimer ([3]; 2.0 M NaCl)	Absorption monomer/absorption dimer ([3]; 3.8 M NaCl)	Absorption monomer/absorption dimer ([3]; Water)	aggregate formation compared to CY5 ([3]; in words, from Table 2)	decrease of absorption [4]	SMILES	Extinction coefficient [1]	rel. Q.Y. [2]	characteristics with respect to aggregate formation ([3]; in words)
4.35	4.40	4.40	considerably lower aggregate formation	–	CC1(C)C(/C=C2\C(=O)C(/C=C3/N(CCCCCC(=O)O)c4ccc(S(=O)(=O)[O-])cc4C3(C)C)=C2O)=[N+](CC(=O)NS(C)(=O)=O)c2ccc(S(=O)(=O)O)cc21 [J]	240 000 mol-1*cm^2*	1.36	stable characteristics
3.18	3.19	3.12	–	12%	CCN1/C(=C/C=C/C=C/C2=[N+](CCCCCC(=O)O)c3ccc(S(=O)(=O)O)cc3C2(C)C)C(C)(C)c2cc(S(=O)(=O)[O-])ccc21 [CY5, reference compound]	–	–	–

SMILES	Absorption monomer/absorption dimer ([3]; 2.0 M NaCl)	Absorption monomer/absorption dimer ([3]; 3.8 M NaCl)	Absorption monomer/absorption dimer ([3]; Water)	aggregate formation compared to CY5 ([3]; in words, from Table 2)	decrease of absorption [4]	Extinction coefficient [1]	rel. Q.Y. [2]	characteristics with respect to aggregate formation ([3]; in words)
CC1(C)C(/C=C2\C(=O)C(/C=C3/N(CCCCCC(=O)O)c4ccccc4C3(C)C)=C2O)=[N+](CC(=O)NS(C)(=O)=O)c2ccc(S(=O)(=O)[O-])cc21 [F]	2.81	2.81	2.89	–	–	420 000 mol-1*cm^2*	1.35	stable characteristics
